From US20250235562A1, “USE OF SECOND NEAR-INFRARED ORGANIC FLUORESCENT COMPOUND IN PREPARATION OF BIOIMAGING CONTRAST AGENT AND IN VASCULAR FLUORESCENCE IMAGING” (INNER MONGOLIA UNIVERSITY, priority 2024, published 2025)

Experiment: Photostability test under continuous white light irradiation
Format: physicochemical
Conditions: 50 mW·cm^−2 white light, continuous irradiation 40 min
Description: (3) Photostability test of the nanoimaging agent Y6CT-NPs: commercial imaging agent indocyanine green (ICG) was selected as a reference. Y6CT-NPs and ICG were irradiated continuously by 50 mW·cm^−2 white light (laparoscopic LED cold light source) for 40 min, and the fluorescence intensity of the two were recorded at different time points, a ratio of which to the initial fluorescence intensity was calculated to compare the attenuation degree of fluorescence intensity and photostability between the two.

change of fluorescence intensity after continuous irradiation: decreases significantly | fluorescence intensity at 40 min relative to the initial fluorescence intensity: 30%
Structure (SMILES): CC1(C)C(/C=C/C=C/C=C/C=C2\N(CCCCS(=O)(=O)O)c3ccc4ccccc4c3C2(C)C)=[N+](CCCCS(=O)(=O)[O-])c2ccc3ccccc3c21 [ICG, indocyanine green]
